How the values were obtained:
[1] = system: MCF-7 breast cancer cells; test: Sensitization of MCF-7 breast cancer cells to the cytotoxic effects of Taxol; format: cell-based, human; conditions: MCF-7, 0.01 μM Taxol alone
Description: Tumor cells are allowed to proliferate in the presence of an inhibitory agent for 48 to 96 hrs. At the end of the assay, tumor cell proliferation in the presence of the inhibitory agent is determined either by cell counting or BrdU incorporation and expressed as % of Control Proliferation, where the term “Control Proliferation” refers to tumor cell proliferation in the absence of any inhibitory or other agents.
MCF-7 breast cancer cells were plated onto a 24-well plate at a density of 208,000 cells per well and allowed to adhere overnight. Subsequently, the cells were treated with 0.01 μM taxol, a concentration known to inhibit 50% of MCF-7 cell proliferation. 6 hrs after the addition of taxol, half of the wells received 0.001 μM SEQ ID NO: 2. […] Cell proliferation of control (untreated) MCF-7 cells and MCF-7 cells treated either with Taxol or SEQ ID NO: 2 alone or with the combination of Taxol and SEQ ID NO: 2 was determined.

[2] = system: MCF-7 breast cancer cells; conditions: 0.01 μM taxol, stated as known; cited from earlier work

SMILES: CC(=O)O[C@H]1C(=O)[C@@]2(C)[C@H]([C@H](OC(=O)c3ccccc3)[C@]3(O)C[C@H](OC(=O)[C@H](O)[C@@H](NC(=O)c4ccccc4)c4ccccc4)C(C)=C1C3(C)C)[C@]1(OC(C)=O)CO[C@@H]1C[C@@H]2O [Taxol]
- % Control Proliferation [1]: 52%
- inhibition of MCF-7 cell proliferation [2]: 50%

Reference: patent publication US20070249540A1, “Methods for Inhibiting Proteasome and Heat Shock Protein 90” (priority 2004, published 2007)
